Test results published in publication PMC8713287, “Synthesis and Cytotoxic Activity of Lepidilines A–D: Comparison with Some 4,5-Diphenyl Analogues and Related Imidazole-2-thiones” (Journal of Natural Products, 2021).
Structures can show the parent of a compound that is named as a salt.

How the values were obtained:
[1] = test system: eight human cancer cell lines; design: method as in PMID 12932133; conditions: inactive against all those cell lines; cited from earlier work
[2] = test system: promyelocytic leukemia HL-60; test: MTT cytotoxicity assay, HL-60; format: cell-based, human; conditions: for IC50: MTT, 48 h incubation, mean ± SEM; for HUVEC/HL-60 IC50 ratio: normal HUVEC vs HL-60
Method: (§1) Potential biological activity of all four lepidilines A–D (1a–1d), as well as their 4,5-diphenyl analogues 6a[PF6], 6c[PF6], and 6d[PF6] (as hexafluorophosphate salts) and a series of imidazole-2-thiones 7 and 8 obtained therefrom, was evaluated in vitro against two human cancer cell lines: promyelocytic leukemia HL-60 and breast cancer adenocarcinoma MCF-7. Selected analogues were also tested against human umbilical vein endothelial cells (HUVECs) using the MTT cytotoxicity assay. Concentration–response analysis was performed to determine drug concentrations required to inhibit the growth of cells by 50% (IC50) after 48 h of incubation.
(§2) Human promyelocytic leukemia (HL-60) and human breast cancer adenocarcinoma (MCF-7) cell lines were obtained from the European Collection of Cell Cultures, while HUVECs were purchased from the American Type Culture Collection. HL-60 cells were cultured in RPMI 1640 plus GlutaMax I medium (Gibco/Life Technologies, Carlsbad, CA, USA). MCF-7 cells were maintained in minimum essential medium Eagle (Sigma-Aldrich, St. Louis, MO, USA) supplemented with 2 mM glutamine and Men nonessential amino acid solution (Sigma-Aldrich). Both media were supplemented with 10% heat-inactivated fetal bovine serum (Biological Industries, Beit-Haemek, Israel) and antibiotics (100 U/mL penicillin and 100 μg/mL streptomycin) (Sigma-Aldrich). HUVEC cells were grown in EGM-2 endothelial medium BulletKit (Lonza, Basel, Switzerland). Cells were maintained at 37 °C in a 5% CO2 atmosphere and were grown until 80% confluent.
(§3) The tested compounds were dissolved in sterile dimethyl sulfoxide (DMSO) and further diluted with culture medium. The final concentration of DMSO in cell cultures was less than 0.1% v/v. Controls without and with 0.1% DMSO were performed in each experiment.
(§4) The MTT assay was performed according to the known procedure.[30] The cells were incubated with the analogues for 48 h. The absorbance of the blue formazan product was measured at 560 nm using a FlexStation 3 multi-mode microplate reader (Molecular Devices, LLC, CA, USA) and compared with control (untreated cells). All experiments were performed in triplicate.

[3] = test system: human umbilical vein endothelial cells (HUVECs); test: MTT cytotoxicity assay, HUVEC; format: cell-based; conditions: 48 h incubation, normal cells, mean ± SEM
Method: as §1, §2, §3, §4

[4] = test system: breast cancer adenocarcinoma MCF-7; test: MTT cytotoxicity assay, MCF-7; format: cell-based, human; conditions: mean ± SEM
Method: as §1, §2, §3, §4

[5] = test system: pancreatic adenocarcinoma PACA2; design: method as in PMID 12932133; conditions: cited from earlier work
breast carcinoma MDA-231 = test system: breast carcinoma MDA-231; design: method as in PMID 12932133; conditions: cited from earlier work
[6] = Homo sapiens, MCF7, 48 h incubation

Structure (SMILES) | melting point [°C] | IC50 ([2]; Homo sapiens, HL-60, 48 h) [µM] | IC50 [3] [µM] | IC50 [4, 6] [µM] | also measured
COc1cccc(C[n+]2cn(Cc3ccccc3)c(C)c2C)c1 (as salt: phosphate) [1c[PF6], 1-Benzyl-3-(3-methoxybenzyl)-4,5-dimethylimidazolium hexafluorophosphate] | 102 to 104 |  |  |  | 
c1ccc(Cn2c[n+](Cc3ccccc3)c(-c3ccccc3)c2-c2ccccc2)cc1 (as salt: phosphate) [6a[PF6], 1,3-Dibenzyl-4,5-diphenylimidazolium hexafluorophosphate] | 129 to 131 |  |  |  | 
COc1cccc(C[n+]2cn(Cc3ccccc3)c(-c3ccccc3)c2-c2ccccc2)c1 (as salt: phosphate) [6c[PF6], 1-Benzyl-3-(3-methoxybenzyl)-4,5-diphenylimidazolium hexafluorophosphate] | 78 to 81 |  |  |  | 
COc1cccc(C[n+]2c(-c3ccccc3)c(-c3ccccc3)n(Cc3ccccc3)c2C)c1 (as salt: phosphate) [6d[PF6], 1-Benzyl-3-(3-methoxybenzyl)-2-methyl-4,5-diphenylimidazolium hexafluorophosphate] | 175 to 177 |  |  |  | 
Cc1c(C)[n+](Cc2ccccc2)cn1Cc1ccccc1 [1a, 1,3-Dibenzyl-4,5-dimethylimidazolium chloride] |  | 32.3 ± 3.5 | > 100 | > 100 | IC50 [1]: > 10 µM
Cc1c(C)[n+](Cc2ccccc2)cn1Cc1ccccc1 [1a[PF6]] [1,3-Dibenzyl-4,5-dimethylimidazolium hexafluorophosphate] |  |  |  |  | IC50 [2]: 32 ± 2 µM; IC50 ([4]; 48 h incubation): > 100 µM
Cc1c(C)[n+](Cc2ccccc2)c(C)n1Cc1ccccc1.[Cl-] [1b, 1,3-Dibenzyl-2,4,5-trimethylimidazolium chloride] | 228 to 229 | 3.8 ± 0.2 | > 100 | > 100 | IC50 PACA2 [5]: 1.38 µg/mL; IC50 ([5]; converted from μg/mL): 4.2 µM; IC50 MDA-231 (breast carcinoma MDA-231): 1.66 µg/mL; IC50 (breast carcinoma MDA-231; converted from μg/mL): 5.1 µM
COc1cccc(Cn2c[n+](Cc3ccccc3)c(C)c2C)c1.[Cl-] [1c, 1-Benzyl-3-(3-methoxybenzyl)-4,5-dimethylimidazolium chloride] | 94 to 96 | 27.7 ± 2.5 | > 100 | 75 ± 5 | 
COc1cccc(C[n+]2cn(Cc3ccccc3)c(C)c2C)c1 [1c[PF6], 1-Benzyl-3-(3-methoxybenzyl)-4,5-dimethylimidazolium hexafluorophosphate] |  | 19.9 ± 0.2 |  | 69.9 ± 0.2 | 
COc1cccc(Cn2c(C)c(C)[n+](Cc3ccccc3)c2C)c1.[Cl-] [1d, 1-Benzyl-3-(3-methoxybenzyl)-2,4,5-trimethylimidazolium chloride] | 214 to 216 | 1.1 ± 0.1 | > 100 | > 100 | fold more cytotoxic for leukemia (HL-60) than for breast cancer (MCF-7) cells ([2]; MCF-7 vs HL-60): over 100 fold; HUVEC/HL-60 IC50 ratio [2]: over 100
c1ccc(Cn2c[n+](Cc3ccccc3)c(-c3ccccc3)c2-c2ccccc2)cc1 [6a[PF6], 1,3-Dibenzyl-4,5-diphenylimidazolium hexafluorophosphate] |  | 1.2 ± 0.1 |  | 8.2 ± 0.2 | 
COc1cccc(C[n+]2cn(Cc3ccccc3)c(-c3ccccc3)c2-c2ccccc2)c1.[Br-] [6c[Br], 1-Benzyl-3-(3-methoxybenzyl)-4,5-diphenylimidazolium bromide] | 149 to 151 |  |  |  | 
COc1cccc(C[n+]2cn(Cc3ccccc3)c(-c3ccccc3)c2-c2ccccc2)c1 [6c[PF6], 1-Benzyl-3-(3-methoxybenzyl)-4,5-diphenylimidazolium hexafluorophosphate] |  | 1.2 ± 0.2 | 8.8 ± 0.1 | 7.9 ± 0.3 | 
COc1cccc(C[n+]2c(-c3ccccc3)c(-c3ccccc3)n(Cc3ccccc3)c2C)c1 [6d[PF6], 1-Benzyl-3-(3-methoxybenzyl)-2-methyl-4,5-diphenylimidazolium hexafluorophosphate] |  | 1.2 ± 0.1 |  | 6.5 ± 0.2 | 
Cc1c(C)n(Cc2ccccc2)c(=S)n1Cc1ccccc1 [7a, 1,3-Dibenzyl-4,5-dimethylimidazole-2-thione] | 183 to 185 | > 100 |  | > 100 | 
COc1cccc(Cn2c(C)c(C)n(Cc3ccccc3)c2=S)c1 [7c, 1-(3′-Methoxybenzyl)-3-benzyl-4,5-dimethylimidazole-2-thione] |  | 20.2 ± 1.9 |  | > 100 | 
S=c1n(Cc2ccccc2)c(-c2ccccc2)c(-c2ccccc2)n1Cc1ccccc1 [8a, 1,3-Dibenzyl-4,5-diphenylimidazole-2-thione] | 180 to 182 | 8.1 ± 0.3 |  | > 100 | 
COc1cccc(Cn2c(-c3ccccc3)c(-c3ccccc3)n(Cc3ccccc3)c2=S)c1 [8c, 1-(3′-Methoxybenzyl)-3-benzyl-4,5-diphenylimidazole-2-thione] | 52 to 55 | 55 ± 5 |  | > 100 | 
COc1cccc2c1C(=O)c1c(O)c3c(c(O)c1C2=O)C[C@@](O)(C(=O)CO)C[C@@H]3O[C@H]1C[C@H](N)[C@H](O)[C@H](C)O1 [DXR, doxorubicin, reference compound] |  | 0.12 ± 0.01 | 1.4 ± 0.1 | 0.9 ± 0.1 | fold more cytotoxic than lepidiline D ([2]; DXR vs lepidiline D, HL-60): 10 fold; HUVEC/HL-60 IC50 ratio [2]: about 10
c1c[n+](C23CC4CC(CC(C4)C2)C3)cn1C12CC3CC(CC(C3)C1)C2 [compound 9, 1,3-diadamantylimidazolium bromide] |  | 1.8 ± 0.1 |  | 51.5 ± 1.5 | 
c1c[n+](OC23CC4CC(CC(C4)C2)C3)cn1OC12CC3CC(CC(C3)C1)C2 [compound 10] |  | 0.3 ± 0.1 | 9.1 ± 0.3 | 4.5 ± 0.1 | 
